Test results from PubChem BioAssay (NCI).
Several values for one entry are separate records, joined by “and”; a condition that tells them apart may be missing. Equal entries are not always repeated.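 A five-concentration, 48-hour dose response in 96-well plates underlies each endpoint, interpolated linearly between surrounding concentrations. The concentration for 50% growth inhibition is given as GI50. TGI is the concentration that stops growth completely.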

What was measured:
Assay in all cases: NCI-60 cell line screen, 48 h
BT-549 breast = system: BT-549 breast
COLO 205 colon = system: COLO 205 colon
EKVX NSCLC = system: EKVX NSCLC
K-562 leukemia = system: K-562 leukemia
LOX IMVI melanoma = system: LOX IMVI melanoma
MCF7 breast = system: MCF7 breast
NCI-H226 lung = system: NCI-H226 lung
NCI-H460 lung = system: NCI-H460 lung
OVCAR-5 ovarian = system: OVCAR-5 ovarian
NCI-H522 lung = system: NCI-H522 lung

| SMILES | TGI (BT-549 breast) | TGI (COLO 205 colon) | TGI (EKVX NSCLC) | TGI (K-562 leukemia) | TGI (LOX IMVI melanoma) | TGI (MCF7 breast) | TGI (NCI-H226 lung) | TGI (NCI-H460 lung) | TGI (OVCAR-5 ovarian) | GI50 (BT-549 breast) [µM] | GI50 (COLO 205 colon) | GI50 (EKVX NSCLC) [µM] | GI50 (K-562 leukemia) [µM] | GI50 (LOX IMVI melanoma) [µM] | GI50 (MCF7 breast) [µM] | GI50 (NCI-H226 lung) | GI50 (NCI-H460 lung) [µM] | GI50 (NCI-H522 lung) [µM] | TGI (NCI-H522 lung) | GI50 (OVCAR-5 ovarian) [µM] |
| --- | --- | --- | --- | --- | --- | --- | --- | --- | --- | --- | --- | --- | --- | --- | --- | --- | --- | --- | --- | --- |
| COc1cc(=O)oc(/C=C/C=C/C=C/C(C)=C\C2(C)OC(C)C(C)(O)C2O)c1C (stereo not given) | > 100 µM | > 100 µM | > 100 µM | > 100 µM | > 100 µM | > 100 µM | > 100 µM | > 100 µM | > 100 µM | – | – | – | – | – | – | – | – | – | – | – |
| COc1cccc(NC(=O)c2ccc(NC3=C(Cl)C(=O)N(Cc4ccccc4)C3=O)cc2)c1 | 33.8 µM | > 100 µM | 49.4 µM | 47.2 µM | 9.11 µM | 17.8 µM | 28.8 µM | 30.4 µM | 65.7 µM | 13.8 | 23.7 µM | 24.4 | 18.9 | 2.71 | 3.9 | 14.8 µM | 12.3 | 2.49 | 8.87 µM | 27.5 |
| C[C@H](C(O)CC(=O)C(C)(C)O)[C@H]1CC[C@@]2(C)[C@@H]3CC[C@H]4C(C)(C)[C@@H](OC5OC(COC6OC(CO)C(O)C(O)C6O)C(O)C(O)C5O)CC[C@]4(C)C3=CC[C@]12C (stereo not given in full) | > 100 µM | > 100 µM | > 100 µM | > 100 µM | > 100 µM | > 100 µM | > 100 µM | > 100 µM | > 100 µM | – | – | – | – | – | – | – | – | – | > 100 µM | – |
| O=C1CCC(N2C(=O)c3cccc(NCCOCCOCCNC(=O)c4cc5c(o4)C(=O)c4ccccc4C5=O)c3C2=O)C(=O)N1 (stereo not given) | 2.84 µM | 3.94 µM | 8.39 µM | 12.7 µM | 2.5 µM | 3.54 µM | 3.8 µM | 3.87 µM | 3.07 µM | 1.47 | 1.98 µM | 2.62 | 2.55 | 1.1 | 1.35 | 1.7 µM | 1.97 | 1.71 | 4.38 µM | 1.67 |
| CN1CCN(c2ccc(-c3cccc(CN4CCOCC4)c3)cc2NC(=O)c2c[nH]c(=O)cc2C(F)(F)F)CC1 | > 100 µM | > 100 µM | > 100 µM | 51 µM | > 100 µM | > 100 µM | > 100 µM | > 100 µM | > 100 µM | 23.7 | 17.8 µM | 69.7 | 22.1 | 25.1 | 33.1 | > 100 µM | 45.8 | 16.7 | 39.5 µM | > 100 |
| COc1ccc(C[C@H]2NC[C@H](O)[C@H]2OC(C)=O)cc1 | 1.91 µM | 0.0256 µM | 0.344 µM | 0.11 µM | 0.0409 µM | 0.119 µM | 0.242 µM | 0.611 µM | 14.5 µM | – | – | – | – | – | – | – | – | – | 0.118 µM | – |
| Cc1ccc2c(c1)-c1oc(=O)c(-c3cc4ccccc4oc3=O)cc1C(O)O2 (stereo not given) | 25.5 µM | 41.7 µM | 25.7 µM | 76.6 µM | 31.4 µM | > 100 µM | 40.5 µM | > 100 µM | 49.8 µM | 12.7 | 18.7 µM | 11.8 | 26.2 | 17.6 | 31.7 | 18.9 µM | 22.3 | 19.4 | 48.1 µM | 20.8 |
| COc1ccc(C(=O)c2cc(C)c(OC)c(C)c2)c(OC)c1N(C(=O)CCl)C(=O)CCl | 1.43 µM | 17.6 µM | 69 µM | > 100 µM | 2.66 µM | > 38.6 µM | 4.22 µM | 1.3 µM | > 53.6 µM | 0.0554 | 0.104 µM | 0.0792 | 0.0557 | 0.0731 | 0.0657 | 0.0562 µM | 0.0386 | 0.0349 | 0.906 µM | 0.101 |
| Clc1ccc(COC(Cn2ccnc2)c2ccc(Cl)cc2Cl)c(Cl)c1 (stereo not given) | 16 µM and 30.4 µM | 3.18 µM and 22.1 µM and 16.1 µM | 18.4 µM and 29.1 µM and 23.1 µM | 21.2 µM and 16.4 µM | 16.2 µM and 34.3 µM and 24.8 µM | 12.4 µM and 27.8 µM and 33.3 µM | 3.31 µM and 23.2 µM and 24.2 µM | 19.3 µM and > 100 µM and 35 µM | 21.7 µM and 32.4 µM and 25.8 µM | 4.7 | 1.62 µM and 10.1 µM and 3.78 µM | 5.64 | – | 3.51 | 3.57 | 1.55 µM and 4.44 µM and 9.24 µM | 4.38 | – | 23.7 µM and 22.8 µM | 9.81 |
| CCN(CC)CCOc1ccc(Cc2ccccc2)cc1 | > 100 µM | 31.5 µM | > 100 µM | – | 33.3 µM | > 100 µM | > 100 µM | 62.1 µM | > 100 µM | 31.4 | 16.1 µM | 26.4 | – | 15.2 | 27.6 | 69.7 µM | 22.9 | 18.4 | > 100 µM | 28.5 |
| COC(=O)[C@H](Cc1cn(C)cn1)NC(=O)[C@@H](NC(=O)Nc1cc(C(F)(F)F)cc(C(F)(F)F)c1)C(C)(C)C | > 10 µM | > 10 µM | – | > 10 µM | > 10 µM | > 10 µM | > 10 µM | > 10 µM | > 10 µM | > 10 | > 10 µM | – | > 10 | > 10 | > 10 | > 10 µM | > 10 | – | – | > 10 |
| C#CCN(Cc1nc2cc(C(F)(F)F)ccc2nc1-c1ccccc1)c1ccc(F)cc1 | > 100 µM | 50.5 µM | 66.2 µM | > 100 µM | 97.8 µM | > 100 µM | > 100 µM | > 100 µM | > 100 µM | 48 | 13.8 µM | 23.1 | 19.5 | 30.5 | 23.2 | 42.4 µM | 27.8 | 22.4 | > 100 µM | 75.6 |
| C[C@@H]1OC(=O)NN=C1c1ccc(-c2ccc(F)cc2)c(C(F)(F)F)c1 | 21.2 µM | 28 µM | 12.4 µM | > 100 µM | 18.8 µM | 25 µM | 20.6 µM | 25.6 µM | 21.6 µM | 7.3 | 11.8 µM | – | 3.2 | 4.78 | 10.1 | 2.57 µM | 11.7 | 2.72 | 14.5 µM | 5.02 |
| Clc1nc(-c2ccccc2)nc(Cl)c1Cl | 35.6 µM | 23 µM | 31.5 µM | > 43.2 µM | 5.6 µM | 24.5 µM | 28.1 µM | 42.7 µM | 30.4 µM | – | – | – | – | – | – | – | – | – | 9.95 µM | – |
